From BindingDB's records for doi:10.7270/Q2736T2X (n/a, 1995)

Tests used:
[1] = target: Muscarinic acetylcholine receptor M1/M2/M3/M4/M5; test: Binding affinity towards muscarinic receptor using [3H]quinuclidinyl benzilate (QNB) to label antagonist sites in membrane preparations from rat neocortex
[2] = target: Muscarinic acetylcholine receptor M1/M2/M3/M4/M5; test: Binding affinity towards muscarinic receptor using [3H]cis-methyldioxolane (CMD) to label agonist sites in membrane preparations from rat neocortex

IC50 [1]: 6.4 µM
IC50 [2]: 0.028 µM
SMILES: O=[N+]([O-])c1cccc(C#CCO[N-][C+]2CN3CCC2C3)c1 (configuration not stated) [1-Aza-bicyclo[2.2.1]heptan-3-one O-[3-(3-nitro-phenyl)-prop-2-ynyl]-oxime]
